Converted amounts (≈) assume the structure as drawn.
How the values were obtained:
Candida albicans = assay: Test 1: Action against Candida albicans (in vitro), suppression of mycelial type growth; type: cell-based, Candida albicans ATCC 44859; conditions: ATCC44859, C. albicans ATCC 44859, 10% fetal-bovine-serum added MEM, 37° C., 24 hours, CO2 incubator, read-out: Terminal point (minimum medicament concentration permitting the apparent suppression of mycerial type growth)
Protocol: Test 1: Action Against Candida albicans (in vitro)
The resulting mixture was incubated at 37° C. for 24 hours in a CO2 gas incubator. After incubation, a morphological change of C. albicans was observed under an inverted microscope. The minimum medicament concentration permitting the apparent suppression of mycerial type growth compared with that of a medicament-free control was designated as a terminal point (ng/ml).

Aspergillus fumigatus = assay: Test 2: Action against Aspergillus fumigatus (in vitro), MIC; type: cell-based, Aspergillus fumigatus IFM 40808; conditions: A. fumigatus IFM 40808, MOPS-containing RPMI 1640, pH 7, almar Blue, 35° C., 48 hours
Protocol: Test 2: Action Against Aspergillus fumigatus (in vitro)
They were incubated at 35° C. for 48 hours. Judgment was made visually and the minimum medicament concentration not permitting a change into red (the medium maintained blue color) was designated as an MIC value (μg/ml).

C. albicans IFM 40009 = assay: Test 3: Action against Candida albicans (in vivo), systemic infection in mice; conditions: i.v. C. albicans 3.0×10^6 cells/mouse, oral 1.25 mg/kg each, four times; for Surviving mice on Day 14 (number of surviving mice/total number in group): Day 14, control 0/11; for Average Survival days: Kaplan-Meier method (Cox mantel test), control 4.5
Protocol: Test 3: Action Against Candida albicans (in vivo)
After 4-week-old, male, ICR (CRJ: CD-1) mice were fasted for 6 hours, C. albicans IFM 40009 was inoculated to the tail vein of each of the mice to give an amount of 3.0×10^6 cells/mouse, whereby infection was caused. A control group consisted of 11 mice, while a medicament-administered group consisted of 5 mice. The medicament dissolved in 20% polyethylene glycol was orally administered 1 hour after the inoculation of the fungus and then consecutively once a day 24 hours after the inoculation, four times in total, at 1.25 mg/kg each. The survival condition on Day 14 after the infection was compared. In addition, the survival days of the control group and the medicament-administered group were detected by the Kaplan-Meier method (Cox mantel test). Incidentally, Fluconazole was employed as a medicament for comparison.

| MIC (Aspergillus fumigatus) [mg/L] | SMILES | minimal effective concentration (Candida albicans) [µg/mL] | Surviving mice on Day 14 (number of surviving mice/total number in group) (C. albicans IFM 40009) | Average Survival days (C. albicans IFM 40009) [days] |
| --- | --- | --- | --- | --- |
| 8 (≈ 22.9 µM) | CCSC(F)(F)C(Cn1cncn1)(OC)c1ccc(F)cc1F (stereo not drawn) [Example 13, 1-[2-(2,4-difluorophenyl)-3-ethylthio-3,3-difluoro-2-methoxypropyl]-1H-1,2,4-triazole] | 0.0313 |  |  |
| 8 (≈ 22.9 µM) | CCS(=O)(=O)C(F)(F)C(O)(Cn1cncn1)c1ccc(F)cc1 (single isomer, unassigned; (-)) [Example 22(2), (-)-1-(Ethylsulfonyl)-1,1-difluoro-2-(4-fluorophenyl)-3-(1H-1,2,4-triazol-1-yl)-2-propanol] | 0.0156 |  |  |
| 16 (≈ 43.6 µM) | CCSC(F)(F)C(O)(Cn1cncn1)c1ccc(C(F)(F)F)cc1 (stereo not drawn) [Example 11, 1-(ethylthio)-1,1-difluoro-2-(4-trifluoromethylphenyl)-3-(1H-1,2,4-triazol-1-yl)-2-propanol] | 0.0078 |  |  |
| 4 (≈ 10.9 µM) | CCS(=O)(=O)C(F)(F)C(O)(Cn1cncn1)c1ccc(F)cc1F (single isomer, unassigned; (-)) [Example 21(2), (-)-2-(2,4-difluorophenyl)-1-(ethylsulfonyl)-1,1-difluoro-3-(1H-1,2,4-triazol-1-yl)-2-propanol] | 0.0156 |  |  |
| 8 (≈ 20 µM) | CCS(=O)(=O)C(F)(F)C(O)(Cn1cncn1)c1ccc(Cl)cc1Cl (stereo not drawn) [Example 18, 2-(2,4-dichlorophenyl)-1-(ethylsulfonyl)-1,1-difluoro-3-(1H-1,2,4-triazol-1-yl)-2-propanol] | 0.0156 |  |  |
| 8 (≈ 21.8 µM) | CCS(=O)(=O)C(F)(F)C(O)(Cn1cncn1)c1ccc(F)cc1F (racemic) [Example 15, 2-(2,4-difluorophenyl)-1-(ethylsulfonyl) -1,1-difluoro-3-(1H-1,2,4-triazole-1-yl)-2-propanol] | 0.0313 | 4/5 | 14.00 |
| 2 (≈ 5.96 µM) | CCSC(F)(F)C(O)(Cn1cncn1)c1ccc(F)cc1F (stereo not drawn) [Example 9, 2-(2,4-difluorophenyl)-1-(ethylthio)-1,1-difluoro-3-(1H-1,2,4-triazol-1-yl)-2-propanol] | 0.0078 |  |  |
| 1 (≈ 2.72 µM) | CCSC(F)(F)C(O)(Cn1cncn1)c1ccc(Cl)cc1Cl (stereo not drawn) [Example 12, 2-(2,4-dichlorophenyl)-1-(ethylthio)-1,1-difluoro-3-(1H-1,2,4-triazol-1-yl)-2-propanol] | 0.0039 |  |  |
| 8 (≈ 25.2 µM) | CCSC(F)(F)C(O)(Cn1cncn1)c1ccc(F)cc1 (stereo not drawn) [Example 10, 1-(ethylthio)-1,1-difluoro-2-(4-fluorophenyl)-3-(1H-1,2,4-triazol-1-yl)-2-propanol] | 0.0313 |  |  |

| SMILES | MIC (Aspergillus fumigatus) [mg/L] | minimal effective concentration (Candida albicans) [µg/mL] | Surviving mice on Day 14 (number of surviving mice/total number in group) (C. albicans IFM 40009) | Average Survival days (C. albicans IFM 40009) [days] |
| --- | --- | --- | --- | --- |
| OC(Cn1cncn1)(Cn1cncn1)c1ccc(F)cc1F [Fluconazole, reference compound] | > 128 | 0.25 | 1/5 | 11.0 |

From patent publication US6204415A, “Triazole derivative or salt thereof, preparation process thereof and pharmaceutical containing said compound as an effective ingredient” (SSP Co., Ltd., priority 1997, dated 2001)
